Among the data in ChEMBL document CHEMBL6071152, “Design, synthesis, and biological evaluation of oridonin derivatives as novel NLRP3 inflammasome inhibitors for the treatment of acute lung injury” (Eur J Med Chem, 2024) are inhibition and Activity values, retold here.

Activity calls are given as the source filed them. The rule behind the calls is not given here.

Assay [1] concerns the target T1, Interferon-inducible protein AIM2 (Mus musculus) (UniProt Q91VJ1).
T1 sequence (whole entry): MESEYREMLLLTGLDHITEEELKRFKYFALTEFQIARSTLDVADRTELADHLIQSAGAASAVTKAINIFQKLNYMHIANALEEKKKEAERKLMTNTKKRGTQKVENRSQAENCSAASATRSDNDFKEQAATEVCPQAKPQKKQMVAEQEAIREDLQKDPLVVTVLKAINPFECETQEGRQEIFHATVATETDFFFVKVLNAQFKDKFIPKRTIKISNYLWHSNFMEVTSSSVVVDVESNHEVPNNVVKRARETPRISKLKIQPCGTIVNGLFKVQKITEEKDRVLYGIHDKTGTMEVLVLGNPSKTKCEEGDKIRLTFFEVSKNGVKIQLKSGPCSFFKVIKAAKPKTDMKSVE
Briefly: Inhibition of AIM2 inflammasome activation in ICR mouse BMDM assessed as inhibition of poly(dA:dT)-stimulated IL-1 beta expression in cell supernatant at 1 uM treated for 3 hrs with LPS followed by incubation with compound for 1 hr and later cells transfected with poly(dA:dT) for 4 hrs by western blot analysis. It is filed as cell-based. Particulars: time 5.0 hrs. Background: Immunoblotting shows a protein as a band on a membrane.

For assay [2], the target named is NACHT, LRR and PYD domains-containing protein 3 (Mus musculus) (UniProt Q8R4B8). Briefly: Inhibition of NLRP3 inflammasome priming in ICR mouse BMDM assessed as inhibition of NLRP3 expression in cell supernatant at 0.2 to 5 uM pretreated with compound for 1 hr followed by stimulation with LPS for 3 hrs and later incubated with ATP for 30 mins by western blot analysis. Type of assay: cell-based. As to conditions: dose 0.2-5 µM, time 4.5 hrs.

For assay [3] the target is unchanged. Nature of the assay: Inhibition of NLRP3 inflammasome priming in ICR mouse BMDM assessed as inhibition of pro-IL-1 beta expression in cell lysate at 1 uM treated for 3 hrs with LPS followed by incubation with compound for 1 hr and later stimulated with nigericin for 0.5 hrs by western blot analysis. Particulars: time 1.5 hrs. Type of assay: subcellular.
In a further assay the test system is Mus musculus. Briefly: Anti-inflammatory activity against LPS-stimulated acute lung injury C57BL/6 mouse model assessed as decrease in partial alveolar congestion in right lung at 1 to 10 mg/kg, ip treated for 3 days and on third day administered with LPS at 30 mins post-compound challenge and measured after 12 hrs by Hematoxylin-Eosin staining analysis. It is filed as functional, organism-based. As to conditions: dose 1-10 mg/kg, time 3.5 day.

The target of assay [4] is NLR family CARD domain-containing protein 4 (Mus musculus) (UniProt Q3UP24). Nature of the assay: Inhibition of NLRC4 inflammasome activation in ICR mouse BMDM assessed as inhibition of FLA-ST-stimulated caspase-1 expression in cell supernatant at 1 uM treated for 3 hrs with LPS followed by incubation with compound for 1 hr and later stimulated with FLA-ST for 2 hrs by western blot analysis. Type of assay: cell-based.

Assay [5] has as its target T1, Interferon-inducible protein AIM2 (Mus musculus). Briefly: Inhibition of AIM2 inflammasome activation in ICR mouse BMDM assessed as inhibition of poly(dA:dT)-stimulated IL-1 beta secretion in cell supernatant at 1 uM treated for 3 hrs with LPS followed by incubation with compound for 1 hr and later cells transfected with poly(dA:dT) for 4 hrs by ELISA. It is filed as cell-based. As to conditions: time 5.0 hrs. Background: ELISA stands for enzyme-linked immunosorbent assay.

Assay [6] has as its target NACHT, LRR and PYD domains-containing protein 3 (Mus musculus) (UniProt Q8R4B8). Nature of the assay: Inhibition of NLRP3 inflammasome activation in ICR mouse BMDM assessed as inhibition of LPS/nigericin-stimulated IL-1 beta expression in cell supernatant at 1 uM treated for 3 hrs with LPS followed by incubation with compound for 1 hr and later stimulated with nigericin for 0.5 hrs by western blot analysis. Type of assay: cell-based. Particulars: time 1.5 hrs.

Assay [7] shares this target. Briefly: Inhibition of NLRP3 inflammasome priming in ICR mouse BMDM assessed as inhibition of ASC expression in cell supernatant at 0.2 to 5 uM pretreated with compound for 1 hr followed by stimulation with LPS for 3 hrs and later incubated with ATP for 30 mins by western blot analysis. Type of assay: cell-based. As to conditions: dose 0.2-5 µM, time 4.5 hrs.
The target is the same in assay [8]. Nature of the assay: Inhibition of NLRP3 inflammasome activation in ICR mouse BMDM assessed as inhibition of LPS/MSU-stimulated caspase-1 expression in cell supernatant at 1 uM treated for 3 hrs with LPS followed by incubation with compound for 1 hr and later stimulated with MSU for 4 hrs by western blot analysis. As to conditions: time 5.0 hrs. Type of assay: cell-based.

The target is the same in assay [9]. Nature of the assay: Inhibition of NLRP3 inflammasome activation in ICR mouse BMDM assessed as inhibition of LPS/nigericin-stimulated IL-1 beta secretion in cell supernatant at 1 uM treated for 3 hrs with LPS followed by incubation with compound for 1 hr and later stimulated with nigericin for 0.5 hrs by ELISA. Type of assay: cell-based. As to conditions: time 1.5 hrs.

The target is the same in assay [10]. Briefly: Inhibition of NLRP3 inflammasome activation in ICR mouse BMDM assessed as inhibition of LPS/ATP-stimulated caspase-1 expression in cell supernatant at 1 uM treated for 3 hrs with LPS followed by incubation with compound for 1 hr and later stimulated with ATP for 0.5 hrs by western blot analysis. Type of assay: cell-based. Particulars: time 1.5 hrs.

Sequence of NACHT, LRR and PYD domains-containing protein 3 (Mus musculus) (Q8R4B8 whole entry, the tested form may be a part): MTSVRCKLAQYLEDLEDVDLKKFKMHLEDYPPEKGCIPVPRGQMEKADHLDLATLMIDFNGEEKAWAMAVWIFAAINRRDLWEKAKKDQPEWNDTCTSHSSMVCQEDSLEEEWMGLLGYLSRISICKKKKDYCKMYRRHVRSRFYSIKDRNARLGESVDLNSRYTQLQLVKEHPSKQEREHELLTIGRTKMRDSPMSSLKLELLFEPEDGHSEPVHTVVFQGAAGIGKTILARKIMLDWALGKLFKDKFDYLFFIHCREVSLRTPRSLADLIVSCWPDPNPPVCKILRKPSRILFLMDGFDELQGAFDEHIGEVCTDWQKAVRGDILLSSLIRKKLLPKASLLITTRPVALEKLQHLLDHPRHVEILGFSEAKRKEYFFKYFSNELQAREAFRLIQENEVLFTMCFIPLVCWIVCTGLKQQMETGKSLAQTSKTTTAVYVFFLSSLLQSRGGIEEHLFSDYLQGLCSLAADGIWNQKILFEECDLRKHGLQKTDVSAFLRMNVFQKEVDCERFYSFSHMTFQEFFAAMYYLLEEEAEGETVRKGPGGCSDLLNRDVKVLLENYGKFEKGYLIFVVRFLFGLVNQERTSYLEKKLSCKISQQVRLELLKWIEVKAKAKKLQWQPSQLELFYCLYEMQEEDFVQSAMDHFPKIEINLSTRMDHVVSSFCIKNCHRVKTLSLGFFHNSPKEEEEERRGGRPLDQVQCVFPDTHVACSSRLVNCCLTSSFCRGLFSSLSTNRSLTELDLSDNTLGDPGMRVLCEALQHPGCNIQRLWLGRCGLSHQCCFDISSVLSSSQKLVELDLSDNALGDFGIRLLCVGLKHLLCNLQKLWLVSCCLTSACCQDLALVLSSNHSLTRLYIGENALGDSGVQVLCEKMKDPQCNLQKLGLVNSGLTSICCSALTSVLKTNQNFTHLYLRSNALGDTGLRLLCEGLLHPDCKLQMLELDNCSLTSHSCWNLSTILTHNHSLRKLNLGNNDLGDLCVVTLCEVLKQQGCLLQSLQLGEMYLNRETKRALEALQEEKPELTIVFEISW
Sequence of NLR family CARD domain-containing protein 4 (Mus musculus) (Q3UP24 whole entry, the tested form may be a part): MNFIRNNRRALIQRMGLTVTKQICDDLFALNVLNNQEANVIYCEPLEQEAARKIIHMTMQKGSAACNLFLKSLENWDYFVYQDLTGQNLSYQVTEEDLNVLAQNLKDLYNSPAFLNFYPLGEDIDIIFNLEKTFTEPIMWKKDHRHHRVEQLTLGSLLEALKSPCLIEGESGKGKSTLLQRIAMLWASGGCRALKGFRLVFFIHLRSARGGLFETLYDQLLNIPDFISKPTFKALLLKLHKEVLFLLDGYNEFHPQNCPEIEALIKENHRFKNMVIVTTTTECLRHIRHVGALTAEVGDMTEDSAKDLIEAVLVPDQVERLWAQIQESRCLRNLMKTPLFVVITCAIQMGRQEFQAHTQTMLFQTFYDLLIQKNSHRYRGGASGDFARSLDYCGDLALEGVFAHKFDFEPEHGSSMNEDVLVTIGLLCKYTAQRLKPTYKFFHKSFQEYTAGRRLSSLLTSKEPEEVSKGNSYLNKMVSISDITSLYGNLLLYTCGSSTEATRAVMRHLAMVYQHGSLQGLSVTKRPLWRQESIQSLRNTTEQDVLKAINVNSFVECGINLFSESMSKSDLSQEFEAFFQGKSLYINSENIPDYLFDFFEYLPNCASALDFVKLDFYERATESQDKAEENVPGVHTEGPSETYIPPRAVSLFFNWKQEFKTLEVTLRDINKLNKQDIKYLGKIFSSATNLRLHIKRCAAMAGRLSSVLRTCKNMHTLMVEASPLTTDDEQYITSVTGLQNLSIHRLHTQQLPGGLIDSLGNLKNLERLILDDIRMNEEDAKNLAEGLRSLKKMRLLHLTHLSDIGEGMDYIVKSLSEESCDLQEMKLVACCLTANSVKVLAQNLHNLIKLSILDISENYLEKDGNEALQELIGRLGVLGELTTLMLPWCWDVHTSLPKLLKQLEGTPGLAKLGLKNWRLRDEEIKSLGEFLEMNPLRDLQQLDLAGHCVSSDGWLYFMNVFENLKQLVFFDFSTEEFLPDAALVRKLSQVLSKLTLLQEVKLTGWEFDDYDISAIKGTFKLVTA

For the compound `C=C1C(=O)[C@]23[C@H](OC(=O)Nc4ccc(F)cc4)[C@H]1CC[C@H]2[C@]12C=CCC(C)(C)[C@H]1[C@H](O)[C@@]3(O)OC2`, the inhibition entry in [1], in assay [2], in [3], in [4], in assay [5] and in assay [7] was “inactive” each time. Also, in the assay on Mus musculus, the outcome was Active. In addition, the inhibition entry in assay [6], in assay [8], in assay [9] and in assay [10] was “Active” each time.
